Measured values from the supplement of paper PMC11208160.
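Also: IS621 bridge recombinase in Escherichia coli cells against a fixed T5 target plasmid.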

Assay: recombinant UMI read abundance after kanamycin selection (control-corrected) (log10(CPM+1)); higher = more efficient recombination; extreme values may be limits of the assay; sequences stand for … in AGTGCAGAGAAAATCGGCCAGTTTTCTCTGCCTGCAGTCCGCATGCCGTGGGACCCCTTGGGTTCTAACCTGTTGCCTAGATTTATGCAGCGGACTGCCTTTCTCCCAAAGTGATAAACCGG…AGGTTGGTTTCACT; site = the 11-nt donor
In short: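 Two replicates each of selected and unselected plating were used in this pooled Escherichia coli screen of donor and donor-binding-loop pairs for the IS621 bridge recombinase. Selection was with IPTG (0.07 mM) and kanamycin. Counts of recombinant UMIs, amplified across the donor–target junction, were converted to CPM, averaged, scaled by control-derived factors and reported as log10(CPM+1).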
With “ATCCAAGCATGGACCGGTTTTCCCGGTAATCCGTATTTGAG (site ATCCTAGCTCT)” the “recombinant UMI read abundance (log10)” value was 0.357.
With “ATCCAAGCATGGACCGGTTTTCCCGGTAATCCGTATTTGAG (site ATCGAAGCTCT)” the “recombinant UMI read abundance (log10)” value was 0.00681.
In the case of “ATCCAAGCATGGACCGGTTTTCCCGGTAATCCGTATTTGAG (site ATCTAAGCTCT)”, the “recombinant UMI read abundance (log10)” value is reported as 0.231.
For “ATCCAAGCATGGACCGGTTTTCCCGGTAATCCGTATTTGAG (site ATGCAAGCTCT)”, the “recombinant UMI read abundance (log10)” value was 0.0198.
With “ATCCAAGCATGGACCGGTTTTCCCGGTAATCCGTATTTGAG (site ATTCAAGCTCT)” the “recombinant UMI read abundance (log10)” value was 0.0155.
With “ATCCAAGCATGGACCGGTTTTCCCGGTAATCCGTATTTGAG (site CTCCAAGCTCT)” the “recombinant UMI read abundance (log10)” value was 0.656.
With “ATCCAAGCATGGACCGGTTTTCCCGGTAATCCGTATTTGAG (site GTCCAAGCTCT)” the “recombinant UMI read abundance (log10)” value was 0.00952.
With “ATCCAAGCATGGACCGGTTTTCCCGGTAATCCGTATTTGAG (site TTCCAAGCTCT)” the “recombinant UMI read abundance (log10)” value was 1.17.
For “ATCCAAGCATGGACCGGTTTTCCCGGTAATCCGTATTTGAT (site ATCCAAGCTAT)”, the “recombinant UMI read abundance (log10)” value was 1.36.
With “ATCCAAGCATGGACCGGTTTTCCCGGTAATCCGTATTTGAT (site ATCCAAGCTCT)” the “recombinant UMI read abundance (log10)” value was 0.233.
With “ATCCAAGCATGGACCGGTTTTCCCGGTAATCCGTATTTGAT (site ATCCAAGCTGT)” the “recombinant UMI read abundance (log10)” value was 1.37.
For “ATCCAAGCATGGACCGGTTTTCCCGGTAATCCGTATTTGAT (site ATCCAAGCTTT)”, the “recombinant UMI read abundance (log10)” value was 0.0123.
With “ATCCAAGCATGGACCGGTTTTCCCGGTAATCCGTATTTGCG (site ATCCAAGCTCA)” the “recombinant UMI read abundance (log10)” value was 0.0396.
For “ATCCAAGCATGGACCGGTTTTCCCGGTAATCCGTATTTGCG (site ATCCAAGCTCC)”, the “recombinant UMI read abundance (log10)” value was 0.00949.
With “ATCCAAGCATGGACCGGTTTTCCCGGTAATCCGTATTTGCG (site ATCCAAGCTCG)” the “recombinant UMI read abundance (log10)” value was 0.262.
For “ATCCAAGCATGGACCGGTTTTCCCGGTAATCCGTATTTGCG (site ATCCAAGCTCT)”, the “recombinant UMI read abundance (log10)” value was 0.689.
With “ATCCATGCATGGACCGGTTTTCCCGGTAATCCGTATTTGAG (site ATCCAAGCTCT)” the “recombinant UMI read abundance (log10)” value was 0.0773.
In the case of “ATCCATGCATGGACCGGTTTTCCCGGTAATCCGTATTTGAG (site ATCCACGCTCT)”, the “recombinant UMI read abundance (log10)” value is reported as 0.0124.
With “ATCCATGCATGGACCGGTTTTCCCGGTAATCCGTATTTGAG (site ATCCAGGCTCT)” the “recombinant UMI read abundance (log10)” value was 0.0333.
With “ATCCATGCATGGACCGGTTTTCCCGGTAATCCGTATTTGAG (site ATCCATGCTCT)” the “recombinant UMI read abundance (log10)” value was 1.05.
For “ATCCGCGCATGGACCGGTTTTCCCGGTAATCCGTATTTGCG (site ATCCGCGCTCG)”, the “recombinant UMI read abundance (log10)” value was 0.503.
With “ATCCTAGCATGGACCGGTTTTCCCGGTAATCCGTATTTGTA (site ATCCTAGCTTA)” the “recombinant UMI read abundance (log10)” value was 1.58.
With “ATCCTATCATGGACCGGTTTTCCCGGTAATCCGTATTTGAG (site ATCCTATCTCT)” the “recombinant UMI read abundance (log10)” value was 0.448.
In the case of “ATCCTTCCATGGACCGGTTTTCCCGGTAATCCGTATTTGCC (site ATCCTTCCTGG)”, the “recombinant UMI read abundance (log10)” value is reported as 0.
In the case of “ATCGAGACATGGACCGGTTTTCCCGGTAATCCGTATTTGGT (site ATAGAGACTAC)”, the “recombinant UMI read abundance (log10)” value is reported as 1.76.
In the case of “ATCGAGACATGGACCGGTTTTCCCGGTAATCCGTATTTGGT (site ATCGAGACTAC)”, the “recombinant UMI read abundance (log10)” value is reported as 1.01.
In the case of “ATCGAGACATGGACCGGTTTTCCCGGTAATCCGTATTTGGT (site ATGGAGACTAC)”, the “recombinant UMI read abundance (log10)” value is reported as 0.604.
For “ATCGAGACATGGACCGGTTTTCCCGGTAATCCGTATTTGGT (site ATTGAGACTAC)”, the “recombinant UMI read abundance (log10)” value was 0.017.
With “ATCGCGGCATGGACCGGTTTTCCCGGTAATCCGTATTTGTC (site ATCGCGGCTGA)” the “recombinant UMI read abundance (log10)” value was 2.69.
In the case of “ATCTATACATGGACCGGTTTTCCCGGTAATCCGTATTTGAA (site ATCTATACTAT)”, the “recombinant UMI read abundance (log10)” value is reported as 0.0589.
With “ATCTATACATGGACCGGTTTTCCCGGTAATCCGTATTTGAA (site ATCTATACTCT)” the “recombinant UMI read abundance (log10)” value was 0.0128.
For “ATCTATACATGGACCGGTTTTCCCGGTAATCCGTATTTGAA (site ATCTATACTGT)”, the “recombinant UMI read abundance (log10)” value was 0.
With “ATCTATACATGGACCGGTTTTCCCGGTAATCCGTATTTGAA (site ATCTATACTTT)” the “recombinant UMI read abundance (log10)” value was 1.29.
In the case of “ATCTATACATGGACCGGTTTTCCCGGTAATCCGTATTTGAC (site AACTATACTGT)”, the “recombinant UMI read abundance (log10)” value is reported as 0.0062.
For “ATCTATACATGGACCGGTTTTCCCGGTAATCCGTATTTGAC (site ACCTATACTGT)”, the “recombinant UMI read abundance (log10)” value was 0.944.
For “ATCTATACATGGACCGGTTTTCCCGGTAATCCGTATTTGAC (site AGCTATACTGT)”, the “recombinant UMI read abundance (log10)” value was 1.66.
With “ATCTATACATGGACCGGTTTTCCCGGTAATCCGTATTTGAC (site ATATATACTGT)” the “recombinant UMI read abundance (log10)” value was 0.408.
With “ATCTATACATGGACCGGTTTTCCCGGTAATCCGTATTTGAC (site ATCAATACTGT)” the “recombinant UMI read abundance (log10)” value was 0.
With “ATCTATACATGGACCGGTTTTCCCGGTAATCCGTATTTGAC (site ATCCATACTGT)” the “recombinant UMI read abundance (log10)” value was 1.7.
In the case of “ATCTATACATGGACCGGTTTTCCCGGTAATCCGTATTTGAC (site ATCGATACTGT)”, the “recombinant UMI read abundance (log10)” value is reported as 0.
For “ATCTATACATGGACCGGTTTTCCCGGTAATCCGTATTTGAC (site ATCTAAACTGT)”, the “recombinant UMI read abundance (log10)” value was 0.
For “ATCTATACATGGACCGGTTTTCCCGGTAATCCGTATTTGAC (site ATCTACACTGT)”, the “recombinant UMI read abundance (log10)” value was 0.552.
In the case of “ATCTATACATGGACCGGTTTTCCCGGTAATCCGTATTTGAC (site ATCTAGACTGT)”, the “recombinant UMI read abundance (log10)” value is reported as 0.
With “ATCTATACATGGACCGGTTTTCCCGGTAATCCGTATTTGAC (site ATCTATACTAT)” the “recombinant UMI read abundance (log10)” value was 0.00827.
In the case of “ATCTATACATGGACCGGTTTTCCCGGTAATCCGTATTTGAC (site ATCTATACTCT)”, the “recombinant UMI read abundance (log10)” value is reported as 0.011.
For “ATCTATACATGGACCGGTTTTCCCGGTAATCCGTATTTGAC (site ATCTATACTGA)”, the “recombinant UMI read abundance (log10)” value was 0.0717.
In the case of “ATCTATACATGGACCGGTTTTCCCGGTAATCCGTATTTGAC (site ATCTATACTGC)”, the “recombinant UMI read abundance (log10)” value is reported as 0.
With “ATCTATACATGGACCGGTTTTCCCGGTAATCCGTATTTGAC (site ATCTATACTGG)” the “recombinant UMI read abundance (log10)” value was 0.
In the case of “ATCTATACATGGACCGGTTTTCCCGGTAATCCGTATTTGAC (site ATCTATACTGT)”, the “recombinant UMI read abundance (log10)” value is reported as 2.44.
In the case of “ATCTATACATGGACCGGTTTTCCCGGTAATCCGTATTTGAC (site ATCTATACTTT)”, the “recombinant UMI read abundance (log10)” value is reported as 0.0131.
In the case of “ATCTATACATGGACCGGTTTTCCCGGTAATCCGTATTTGAC (site ATCTATCCTGT)”, the “recombinant UMI read abundance (log10)” value is reported as 0.
In the case of “ATCTATACATGGACCGGTTTTCCCGGTAATCCGTATTTGAC (site ATCTATGCTGT)”, the “recombinant UMI read abundance (log10)” value is reported as 0.
In the case of “ATCTATACATGGACCGGTTTTCCCGGTAATCCGTATTTGAC (site ATCTATTCTGT)”, the “recombinant UMI read abundance (log10)” value is reported as 0.327.
With “ATCTATACATGGACCGGTTTTCCCGGTAATCCGTATTTGAC (site ATCTCTACTGT)” the “recombinant UMI read abundance (log10)” value was 0.
For “ATCTATACATGGACCGGTTTTCCCGGTAATCCGTATTTGAC (site ATCTGTACTGT)”, the “recombinant UMI read abundance (log10)” value was 0.
For “ATCTATACATGGACCGGTTTTCCCGGTAATCCGTATTTGAC (site ATCTTTACTGT)”, the “recombinant UMI read abundance (log10)” value was 0.
In the case of “ATCTATACATGGACCGGTTTTCCCGGTAATCCGTATTTGAC (site ATGTATACTGT)”, the “recombinant UMI read abundance (log10)” value is reported as 1.03.
With “ATCTATACATGGACCGGTTTTCCCGGTAATCCGTATTTGAC (site ATTTATACTGT)” the “recombinant UMI read abundance (log10)” value was 0.
In the case of “ATCTATACATGGACCGGTTTTCCCGGTAATCCGTATTTGAC (site CTCTATACTGT)”, the “recombinant UMI read abundance (log10)” value is reported as 2.17.
For “ATCTATACATGGACCGGTTTTCCCGGTAATCCGTATTTGAC (site GTCTATACTGT)”, the “recombinant UMI read abundance (log10)” value was 0.424.
With “ATCTATACATGGACCGGTTTTCCCGGTAATCCGTATTTGAC (site TTCTATACTGT)” the “recombinant UMI read abundance (log10)” value was 1.19.
In the case of “ATCTATGCATGGACCGGTTTTCCCGGTAATCCGTATTTGAC (site ATCTATACTGT)”, the “recombinant UMI read abundance (log10)” value is reported as 2.11.
In the case of “ATCTATGCATGGACCGGTTTTCCCGGTAATCCGTATTTGAC (site ATCTATCCTGT)”, the “recombinant UMI read abundance (log10)” value is reported as 0.
For “ATCTATGCATGGACCGGTTTTCCCGGTAATCCGTATTTGAC (site ATCTATGCTGT)”, the “recombinant UMI read abundance (log10)” value was 2.57.
With “ATCTATGCATGGACCGGTTTTCCCGGTAATCCGTATTTGAC (site ATCTATTCTGT)” the “recombinant UMI read abundance (log10)” value was 0.
For “ATCTCAGCATGGACCGGTTTTCCCGGTAATCCGTATTTGGG (site AACTCAGCTCC)”, the “recombinant UMI read abundance (log10)” value was 0.0145.
For “ATCTCAGCATGGACCGGTTTTCCCGGTAATCCGTATTTGGG (site ACCTCAGCTCC)”, the “recombinant UMI read abundance (log10)” value was 0.01.
In the case of “ATCTCAGCATGGACCGGTTTTCCCGGTAATCCGTATTTGGG (site AGCTCAGCTCC)”, the “recombinant UMI read abundance (log10)” value is reported as 0.0129.
With “ATCTCAGCATGGACCGGTTTTCCCGGTAATCCGTATTTGGG (site ATCTCAGCTCC)” the “recombinant UMI read abundance (log10)” value was 0.323.
In the case of “ATCTCTACATGGACCGGTTTTCCCGGTAATCCGTATTTGAC (site ATCTATACTGT)”, the “recombinant UMI read abundance (log10)” value is reported as 0.264.
In the case of “ATCTCTACATGGACCGGTTTTCCCGGTAATCCGTATTTGAC (site ATCTCTACTGT)”, the “recombinant UMI read abundance (log10)” value is reported as 2.29.
In the case of “ATCTCTACATGGACCGGTTTTCCCGGTAATCCGTATTTGAC (site ATCTGTACTGT)”, the “recombinant UMI read abundance (log10)” value is reported as 0.00346.
For “ATCTCTACATGGACCGGTTTTCCCGGTAATCCGTATTTGAC (site ATCTTTACTGT)”, the “recombinant UMI read abundance (log10)” value was 0.
In the case of “ATCTGGACATGGACCGGTTTTCCCGGTAATCCGTATTTGCC (site ATCTGGACTGG)”, the “recombinant UMI read abundance (log10)” value is reported as 1.25.
For “ATCTGTGCATGGACCGGTTTTCCCGGTAATCCGTATTTGGC (site ATCTGTGCTGC)”, the “recombinant UMI read abundance (log10)” value was 0.
